Experimental data: US20110319392A1, “Thiazole Sulfonamide And Oxazole Sulfonamide Kinase Inhibitors” (priority 2009, published 2011)
Structures can show the parent of a compound that is named as a salt.

Columns and labels:
B-Raf = B-Raf (Homo sapiens, UniProt P15056); assay: B-Raf Accelerated MEK ATPase assay (BRAMA), Method A or B; format: biochemical; conditions: Method B: final MEK 150 nM, single end point read
How it was run: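 Activated Raf plus non-phosphorylated MEK drives MEK-mediated ATP hydrolysis; ADP formation coupled via pyruvate kinase/lactate dehydrogenase to NADH oxidation. Method A read kinetically; Method B used 150 nM final MEK and a single end-point read.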

HT-29 tumor cells = assay: Cell growth inhibition assay (CellTiter-Glo), HT-29; format: cell-based, Human; conditions: Homo sapiens
Experimental: Human breast tumor cells (BT474) were cultured in RPMI (Mediatech […]), containing 10% FBS (JRH Biosciences 12176) and 1% penicillin-streptomycin (Invitrogen 15140). Human head and neck tumor cells (HN5) were cultured in high glucose DMEM (Mediatech 50-013-PB) containing 10% FBS and 1% penicillin-streptomycin. Human colon tumor cells (Colo205) were cultured in RPMI (Mediatech 50-020-PB) containing 10% FBS and 1% penicillin-streptomycin. Human melanoma cancer cells (SK-MEL-28) were cultured in EMEM with nonessential amino acids (Mediatech 50-011-PB) containing 10% FBS, 1% sodium pyruvate (JT Baker 3354-04), and 1% penicillin-streptomycin. Human melanoma cancer cells (A375P F11s) were cultured in RPMI (Mediatech 50-020-PB) containing 10% FBS, 1% sodium pyruvate, and 1% penicillin-streptomycin. Human colon cancer cells (HT-29) were cultured in high glucose DMEM (Mediatech 50-013-PB) containing 10% FBS and 1% penicillin-streptomycin. Human melanoma cancer cells (SK-MEL-3) were cultured in McCoy's 5A (50-025-PB) containing 15% FBS, and 1% penicillin-streptomycin. All cell lines were maintained at 37° C. in a humidified 5% CO2, 95% air incubator. Cells were harvested using trypsin/EDTA (Invitrogen 25200), counted using a haemocytometer, and plated. For 96-well assays (using white full-area NUNC plates cat. #136102), cells were plated in 105 μL at the following densities (cells/well): HNS, 500; Colo 205, 500; SK-MEL-28, 500; A375P F11s, 500; HT-29, 500; SK-MEL-3, 500; and BT474, 3000. For 384-well assays (white full-area NUNC plates, cat. #781080), cells were plated in 48 μL at the following densities (cells/well): HNS, 500; Colo205, 500; SK-MEL-28, 500; A375P F11s, 500; HT-29, 500; SK-MEL-3, 500; and BT474, 2000.
The next day, compounds were diluted as follow: For 96-well assays, 13.5 μL of compound in DMSO were diluted using nine (9) serial 1:3 dilutions of 4.5 μL in 9 of DMSO. Medium (270 μL/well of RPMI with 10% FBS and 1% penicillin-streptomycin) was added to the plates. Aliquots (7 μL) were added to cells in the final assay giving a final DMSO concentration of 0.2%. For 384-well assays, 15 μL of compound in DMSO were diluted using nine (9) serial 1:3 dilutions of 5 μL in 10 μL of DMSO, followed by a further dilution of 5 μL of compound with 95 μL of medium, of which 2 μL were added to cells in the final assay giving a final DMSO concentration of 0.2%. Cells were incubated at 37° C., 5% CO2 for 3 days.
Total ATP was measured (as a surrogate estimate of cell number) using CellTiter-Glo® reagent (Promega G7571). Briefly, plates were removed from the incubator and allowed to equilibrate to room temperature for 30 minutes. CellTiter-Glo® (25 μL or 55 μL for 384-well or 96-well assays, respectively) reagent was added to each well and plates were shaken on an orbital plate shaker for 2 minutes. Plates were incubated without shaking for a further 30 minutes and read on an LJL Analyst GT reader in luminometer mode with an integration time of 0.5 seconds per well. Percent inhibition of cell growth was calculated relative to DMSO vehicle-treated control wells. Concentration of compound required to give 50% inhibition of vehicle-treated control cell growth (IC50) was interpolated using a 4-parameter fit for determining IC50 using the following equation: Y=A +((B−A)/(1+((C/X)̂D))) where […].

Sequence of B-Raf (P15056 whole entry): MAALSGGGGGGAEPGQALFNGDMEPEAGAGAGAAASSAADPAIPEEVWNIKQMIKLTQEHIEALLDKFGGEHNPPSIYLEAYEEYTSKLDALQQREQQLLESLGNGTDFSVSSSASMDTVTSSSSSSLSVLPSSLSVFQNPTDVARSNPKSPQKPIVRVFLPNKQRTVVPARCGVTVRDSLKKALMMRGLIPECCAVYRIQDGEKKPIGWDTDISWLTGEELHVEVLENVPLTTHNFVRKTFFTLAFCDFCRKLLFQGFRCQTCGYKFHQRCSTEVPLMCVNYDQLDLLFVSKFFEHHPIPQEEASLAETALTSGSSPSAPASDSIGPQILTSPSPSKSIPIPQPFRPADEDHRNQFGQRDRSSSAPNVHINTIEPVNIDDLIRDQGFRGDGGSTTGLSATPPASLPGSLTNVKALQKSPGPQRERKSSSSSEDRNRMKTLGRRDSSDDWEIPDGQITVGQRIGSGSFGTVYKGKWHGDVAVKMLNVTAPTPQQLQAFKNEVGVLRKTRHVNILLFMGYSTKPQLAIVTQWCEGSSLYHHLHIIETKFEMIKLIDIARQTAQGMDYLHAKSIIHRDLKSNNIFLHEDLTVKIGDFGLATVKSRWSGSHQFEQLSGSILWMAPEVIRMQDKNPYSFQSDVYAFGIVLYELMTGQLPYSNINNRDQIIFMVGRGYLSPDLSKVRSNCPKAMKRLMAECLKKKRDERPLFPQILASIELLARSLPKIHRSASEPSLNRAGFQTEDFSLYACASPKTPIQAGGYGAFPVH

| IC50 (B-Raf) | IC50 (HT-29 tumor cells) | Compound |
| --- | --- | --- |
| < 0.1 µM | < 0.1 µM | CC(C)c1nc(-c2cccc(NS(=O)(=O)c3c(F)cccc3F)c2)c(-c2ccnc(Nc3ccc(N4CCN(CCS(C)(=O)=O)CC4)c(F)c3)n2)s1 [Example 16, 2,6-Difluoro-N-{3-[5-{2-[(3-fluoro-4-{4-[2-(methylsulfonyl)ethyl]-1-piperazinyl}phenyl)amino]-4-pyrimidinyl}-2-(1-methylethyl)-1,3-thiazol-4-yl]ohenyl}benzenesulfonamide hydrochloride] |
| < 0.1 µM | < 0.1 µM | CC(C)c1nc(-c2cccc(NS(=O)(=O)c3c(F)cccc3F)c2)c(-c2ccnc(Nc3ccc(N4CCOCC4)nc3)n2)s1 [Example 17, 2,6-Difluoro-N-{3-[2-(1-methylethyl)-5-(2-{[6-(4-morpholinyl)-3-pyridinyl]amino}-4-pyrimidinyl)-1,3-thiazol-4-yl]phenyl}benzenesulfonamide] |
| < 0.1 µM | < 0.1 µM | COc1ccc(Nc2nccc(-c3sc(C(C)C)nc3-c3cccc(NS(=O)(=O)c4c(F)cccc4F)c3)n2)cc1N(C)C [Example 18, N-{3-[5-(2-{[3-(Dimethylamino)-4-(methyloxy)phenyl]amino}-4-pyrimidinyl)-2-(1-methylethyl)-1,3-thiazol-4-yl]phenyl}-2,6-difluorobenzenesulfonamide trifluoroacetate] |
| < 0.1 µM | > 1 µM | COc1cc(N2CCN(CCS(C)(=O)=O)CC2)c(C)cc1Nc1nccc(-c2sc(C(C)C)nc2-c2cccc(NS(=O)(=O)c3c(F)cccc3F)c2)n1 [Example 19] |
| < 0.1 µM | > 1 µM | COc1cc(N2CCC(N3CCN(CCS(C)(=O)=O)CC3)CC2)ccc1Nc1nccc(-c2sc(C(C)C)nc2-c2cccc(NS(=O)(=O)c3c(F)cccc3F)c2)n1 [Example 20, 2,6-Difluoro-N-{3-[2-(1-methylethyl)-5-(2-{[2-(methyloxy)-4-(4-{4-[2-(methylsulfonyl)ethyl]-1-piperazinyl}-1-piperidinyl)phenyl]amino}-4-pyrimidinyl)-1,3-thiazol-4-yl]phenyl}benzenesulfonamide] |
| < 0.1 µM | < 0.1 µM | O=S(=O)(Nc1cccc(-c2nc(N3CCCC3)sc2-c2ccnc(Nc3ccc(N4CCN(CCF)CC4)c(F)c3)n2)c1)c1c(F)cccc1F [Example 21, 2,6-Difluoro-N-{3-[5-[2-({3-fluoro-4-[4-(2-fluoroethyl)-1-piperazinyl]phenyl}amino)-4-pyrimidinyl]-2-(1-pyrrolidinyl)-1,3-thiazol-4-yl]phenyl}benzenesulfonamide] |
| < 0.1 µM | 0.1 to 1 µM | CC(C)c1nc(-c2ccc(F)c(NS(=O)(=O)c3ccccc3F)c2)c(-c2ccnc(Nc3ccc(N4CCN(CCS(C)(=O)=O)CC4)c(F)c3)n2)s1 [Example 22, 2-Fluoro-N-{2-fluoro-5-[5-{2-[(3-fluoro-4-}4-[2-(methylsulfonyl)ethyl]-1-piperazinyl}phenyl)amino]-4-pyrimidinyl}-2-(1-methylethyl)-1,3-thiazol-4-yl]phenyl}benzenesulfonamide hydrochloride] |
| < 0.1 µM | < 0.1 µM | CC(C)c1nc(-c2ccc(F)c(NS(=O)(=O)c3c(F)cccc3F)c2)c(-c2ccnc(Nc3ccc(N4CCOCC4)nc3)n2)s1 [Example 23, 2,6-Difluoro-N-{2-fluoro-5-[2-(1-methylethyl)-5-(2-{[6-(4-morpholinyl)-3-pyridinyl]amino}-4-pyrimidinyl)-1,3-thiazol-4-yl]phenyl}benzenesulfonamide] |
| < 0.1 µM | < 0.1 µM | CC(C)c1nc(-c2ccc(F)c(NS(=O)(=O)c3c(F)cccc3F)c2)c(-c2ccnc(Nc3ccc(N4CCC(C#N)CC4)nc3)n2)s1 [Example 24, N-{5-[5-(2-{[6-(4-Cyano-1-piperidinyl)-3-pyridinyl]amino}-4-pyrimidinyl)-2-(1-methylethyl)-1,3-thiazol-4-yl]-2-fluorophenyl}-2,6-difluorobenzenesulfonamide] |
| < 0.1 µM | 0.1 to 1 µM | CC(C)c1nc(-c2ccc(F)c(NS(=O)(=O)c3c(F)cccc3F)c2)c(-c2ccnc(Nc3ccc(N4CCN(CCF)CC4)c(F)c3)n2)s1 [Example 25] |
| < 0.1 µM | > 1 µM | O=S(=O)(Nc1cc(-c2nc(N3CCCC3)sc2-c2ccnc(Nc3ccc(N4CCOCC4)nc3)n2)ccc1F)c1c(F)cccc1F [Example 26, 2,6-Difluoro-N-{2-fluoro-5-[5-(2-{(6-(4-morpholinyl)-3-pyridinyl]amino}-4-pyrimidinyl)-2-(1-pyrrolidinyl)-1,3-thiazol-4-yl]phenyl}benzenesulfonamide] |
| < 0.1 µM | 0.1 to 1 µM | CN(C)c1nc(-c2ccc(F)c(NS(=O)(=O)c3c(F)cccc3F)c2)c(-c2ccnc(Nc3ccc(N4CCOCC4)nc3)n2)s1 [Example 27, N-{5-[2-(Dimethylamino)-5-(2-{[6-(4-morpholinyl)-3-pyridinyl]amino}-4-pyrimidinyl)-1,3-thiazol-4-yl]-2-fluorophenyl}-2,6-difluorobenzenesulfonamide] |
| < 0.1 µM | 0.1 to 1 µM | CC(C)(C)c1nc(-c2ccc(F)c(NS(=O)(=O)c3c(F)cccc3F)c2)c(-c2ccnc(Nc3ccc(N4CCOCC4)nc3)n2)s1 [Example 28, N-{5-[2-(1,1-Dimethylethyl)-5-(2-{[[6-(4-morpholinyl)-3-pyridinyl]amino}-4-pyrimidinyl)-1,3-thiazol-4-yl]-2-fluorophenyl]-2,6-difluorobenzenesulfonamide hydrochloride] |
| < 0.1 µM | 0.1 to 1 µM | CC(C)c1nc(-c2cccc(NS(=O)(=O)c3c(F)cccc3F)c2F)c(-c2ccnc(Nc3ccc(N4CCN(CCF)CC4)c(F)c3)n2)s1 [Example 29, 2,6-Difluoro-N-{2-fluoro-3-[5-[2-({3-fluoro-4-[4-(2-fluoroethyl)-1-piperazinyl]phenyl}amino)-4-pyrimidinyl]-2-(1-methylethyl)-1,3-thiazol-4-yl]phenyl}benzenesulfonamide] |
| < 0.1 µM | 0.1 to 1 µM | CC(C)c1nc(-c2cccc(NS(=O)(=O)c3c(F)cccc3F)c2F)c(-c2ccnc(Nc3cnc(N4CCOCC4)c(F)c3)n2)s1 [Example 30, 2,6-Difluoro-N-{2-fluoro-3-[5-(2-{[5-fluoro-6-(4-morpholinyl)-3-pyridinyl]amino}-4-pyrimidinyl)-2-(1-methylethyl)-1,3-thiazol-4-yl]phenyl}benzenesulfonamide] |
| < 0.1 µM | < 0.1 µM | CC(C)c1nc(-c2cc(F)c(F)c(NS(=O)(=O)c3cccc(F)c3)c2)c(-c2ccnc(Nc3cnc(N4CCOCC4)c(F)c3)n2)s1 [Example 31, N-{2,3-Difluoro-5-[5-(2-{[5-fluoro-6-(4-morpholinyl)-3-pyridinyl]amino}-4-pyrimidinyl)-2-(1-methylethyl)-1,3-thiazol-4-yl]phenyl}-3-fluorobenzenesulfonamide] |
| < 0.1 µM | > 1 µM | CC(C)c1nc(-c2ccnc(NS(=O)(=O)c3c(F)cccc3F)c2)c(-c2ccnc(Nc3ccc(N4CCOCC4)nc3)n2)s1 [Example 32, 2,6-Difluoro-N-{4-[2-(1-methylethyl)-5-(2-{[6-(4-morpholinyl}-3-pyridinyl]amino}-4-pyrimidinyl)-1,3-thiazol-4-yl]-2-pyridinyl}benzenesulfonamide] |
| < 0.1 µM | 0.1 to 1 µM | CC(C)c1nc(-c2ccnc(NS(=O)(=O)c3c(F)cccc3F)c2)c(-c2ccnc(Nc3cnc(N4CCOCC4)c(F)c3)n2)s1 [Example 33] |
| < 0.1 µM | > 1 µM | CCc1nc(-c2cccc(CNS(=O)(=O)c3ccccc3)c2)c(-c2ccnc(Nc3ccc(N4CCOCC4)c(F)c3)n2)s1 [Example 34] |
